Experimental findings from publication PMC6478789, “A chemical toolbox for the study of bromodomains and epigenetic signaling” (Nature Communications, 2019) are described below.

Where two headings read alike, the source gives them in different places.

Test [1] has as its target EP300 (Homo sapiens, UniProt Q09472). As to the kind of experiment: Histone acetyltransferase (HAT) activity assay. The conditions noted are these: for activity at 1 µM / activity at 10 µM: read-out: HATs Activity (%). In kind it is biochemical.
Target sequence in this assay (Q09472 whole entry, species assumed): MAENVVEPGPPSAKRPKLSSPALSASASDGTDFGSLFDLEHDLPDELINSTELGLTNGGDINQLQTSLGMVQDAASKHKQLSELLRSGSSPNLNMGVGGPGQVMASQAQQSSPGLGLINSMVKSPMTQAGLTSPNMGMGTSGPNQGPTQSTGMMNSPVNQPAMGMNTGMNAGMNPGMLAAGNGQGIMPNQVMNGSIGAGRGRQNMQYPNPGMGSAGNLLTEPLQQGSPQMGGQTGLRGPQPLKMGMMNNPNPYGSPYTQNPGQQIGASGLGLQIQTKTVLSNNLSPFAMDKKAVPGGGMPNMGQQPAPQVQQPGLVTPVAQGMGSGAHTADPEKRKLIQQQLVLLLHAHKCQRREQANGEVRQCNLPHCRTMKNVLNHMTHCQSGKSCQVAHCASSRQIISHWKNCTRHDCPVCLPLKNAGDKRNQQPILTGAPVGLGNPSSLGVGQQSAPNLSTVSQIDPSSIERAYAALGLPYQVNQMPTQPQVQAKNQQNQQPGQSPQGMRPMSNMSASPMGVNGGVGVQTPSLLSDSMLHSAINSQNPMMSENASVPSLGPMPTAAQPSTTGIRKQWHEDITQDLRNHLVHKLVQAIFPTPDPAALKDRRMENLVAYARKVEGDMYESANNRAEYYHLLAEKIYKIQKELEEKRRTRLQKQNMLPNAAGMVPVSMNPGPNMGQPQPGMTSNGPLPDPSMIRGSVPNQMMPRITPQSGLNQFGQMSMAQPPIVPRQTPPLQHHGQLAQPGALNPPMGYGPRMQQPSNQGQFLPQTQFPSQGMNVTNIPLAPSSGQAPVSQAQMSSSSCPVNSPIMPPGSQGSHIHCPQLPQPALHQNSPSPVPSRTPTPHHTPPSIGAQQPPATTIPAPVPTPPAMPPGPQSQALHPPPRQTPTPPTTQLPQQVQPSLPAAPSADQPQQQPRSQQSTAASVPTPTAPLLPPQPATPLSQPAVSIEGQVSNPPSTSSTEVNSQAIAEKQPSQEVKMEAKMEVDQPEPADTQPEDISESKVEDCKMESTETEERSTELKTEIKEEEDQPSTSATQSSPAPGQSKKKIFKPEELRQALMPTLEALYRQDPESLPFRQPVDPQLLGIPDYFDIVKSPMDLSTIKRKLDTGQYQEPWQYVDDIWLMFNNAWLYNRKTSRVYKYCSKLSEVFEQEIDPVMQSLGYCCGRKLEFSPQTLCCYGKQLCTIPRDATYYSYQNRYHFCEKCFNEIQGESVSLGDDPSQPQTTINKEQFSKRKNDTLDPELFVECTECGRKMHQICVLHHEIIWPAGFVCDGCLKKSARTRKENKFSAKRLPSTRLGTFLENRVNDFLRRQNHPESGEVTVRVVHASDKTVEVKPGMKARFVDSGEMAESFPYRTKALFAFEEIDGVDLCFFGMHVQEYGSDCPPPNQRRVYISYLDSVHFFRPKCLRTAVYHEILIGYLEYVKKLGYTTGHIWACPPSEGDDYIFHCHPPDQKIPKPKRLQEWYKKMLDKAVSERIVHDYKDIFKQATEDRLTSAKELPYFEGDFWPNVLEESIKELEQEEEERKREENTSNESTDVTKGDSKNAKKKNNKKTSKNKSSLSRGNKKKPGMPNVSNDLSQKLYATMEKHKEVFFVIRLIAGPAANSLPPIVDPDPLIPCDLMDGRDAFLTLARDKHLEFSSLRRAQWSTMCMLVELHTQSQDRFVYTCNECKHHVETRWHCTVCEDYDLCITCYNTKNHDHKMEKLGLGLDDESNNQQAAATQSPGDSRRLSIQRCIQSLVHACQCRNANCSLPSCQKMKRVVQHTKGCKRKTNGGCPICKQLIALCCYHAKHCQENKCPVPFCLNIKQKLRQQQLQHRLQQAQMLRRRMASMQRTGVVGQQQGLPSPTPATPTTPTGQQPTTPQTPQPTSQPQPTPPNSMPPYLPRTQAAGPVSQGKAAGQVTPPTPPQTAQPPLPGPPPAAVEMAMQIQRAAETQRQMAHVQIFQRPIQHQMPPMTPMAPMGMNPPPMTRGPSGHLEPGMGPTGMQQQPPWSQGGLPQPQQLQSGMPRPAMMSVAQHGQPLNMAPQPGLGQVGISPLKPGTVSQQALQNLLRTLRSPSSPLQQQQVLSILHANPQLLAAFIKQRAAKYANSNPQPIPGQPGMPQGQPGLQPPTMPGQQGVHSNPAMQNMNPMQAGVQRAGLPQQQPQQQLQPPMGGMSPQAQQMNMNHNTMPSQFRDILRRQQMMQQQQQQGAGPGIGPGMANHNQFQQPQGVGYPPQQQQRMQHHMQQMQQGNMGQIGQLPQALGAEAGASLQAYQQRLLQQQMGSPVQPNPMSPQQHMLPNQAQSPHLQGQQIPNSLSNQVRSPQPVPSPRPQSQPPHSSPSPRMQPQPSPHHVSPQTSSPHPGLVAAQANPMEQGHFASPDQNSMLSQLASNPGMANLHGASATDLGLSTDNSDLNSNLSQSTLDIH
The next test addresses T1, HAT1 (Homo sapiens, UniProt O14929).
T1 sequence (O14929 1-419): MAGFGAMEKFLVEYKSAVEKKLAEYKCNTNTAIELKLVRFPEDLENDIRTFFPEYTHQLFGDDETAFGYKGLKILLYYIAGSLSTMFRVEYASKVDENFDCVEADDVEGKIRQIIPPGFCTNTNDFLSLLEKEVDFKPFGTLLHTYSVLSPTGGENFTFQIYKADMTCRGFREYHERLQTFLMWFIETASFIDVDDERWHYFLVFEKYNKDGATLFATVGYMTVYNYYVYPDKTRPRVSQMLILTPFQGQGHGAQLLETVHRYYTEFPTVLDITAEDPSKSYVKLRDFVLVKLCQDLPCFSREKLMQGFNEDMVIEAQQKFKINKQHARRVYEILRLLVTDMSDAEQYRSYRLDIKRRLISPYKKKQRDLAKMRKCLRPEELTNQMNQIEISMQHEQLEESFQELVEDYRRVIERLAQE
As to the kind of experiment: Histone acetyltransferase (HAT) activity assay. In kind it is biochemical. The conditions noted are these: for activity at 1 µM / activity at 10 µM: read-out: HATs Activity (%).

The target in the next test is MYST3 (Homo sapiens, UniProt Q92794). As to the kind of experiment: Histone acetyltransferase (HAT) activity assay. Format: biochemical. The following applies: for activity at 1 µM / activity at 10 µM: read-out: HATs Activity (%).
Sequence of MYST3 (Q92794 whole entry, species assumed, the tested form may be a part): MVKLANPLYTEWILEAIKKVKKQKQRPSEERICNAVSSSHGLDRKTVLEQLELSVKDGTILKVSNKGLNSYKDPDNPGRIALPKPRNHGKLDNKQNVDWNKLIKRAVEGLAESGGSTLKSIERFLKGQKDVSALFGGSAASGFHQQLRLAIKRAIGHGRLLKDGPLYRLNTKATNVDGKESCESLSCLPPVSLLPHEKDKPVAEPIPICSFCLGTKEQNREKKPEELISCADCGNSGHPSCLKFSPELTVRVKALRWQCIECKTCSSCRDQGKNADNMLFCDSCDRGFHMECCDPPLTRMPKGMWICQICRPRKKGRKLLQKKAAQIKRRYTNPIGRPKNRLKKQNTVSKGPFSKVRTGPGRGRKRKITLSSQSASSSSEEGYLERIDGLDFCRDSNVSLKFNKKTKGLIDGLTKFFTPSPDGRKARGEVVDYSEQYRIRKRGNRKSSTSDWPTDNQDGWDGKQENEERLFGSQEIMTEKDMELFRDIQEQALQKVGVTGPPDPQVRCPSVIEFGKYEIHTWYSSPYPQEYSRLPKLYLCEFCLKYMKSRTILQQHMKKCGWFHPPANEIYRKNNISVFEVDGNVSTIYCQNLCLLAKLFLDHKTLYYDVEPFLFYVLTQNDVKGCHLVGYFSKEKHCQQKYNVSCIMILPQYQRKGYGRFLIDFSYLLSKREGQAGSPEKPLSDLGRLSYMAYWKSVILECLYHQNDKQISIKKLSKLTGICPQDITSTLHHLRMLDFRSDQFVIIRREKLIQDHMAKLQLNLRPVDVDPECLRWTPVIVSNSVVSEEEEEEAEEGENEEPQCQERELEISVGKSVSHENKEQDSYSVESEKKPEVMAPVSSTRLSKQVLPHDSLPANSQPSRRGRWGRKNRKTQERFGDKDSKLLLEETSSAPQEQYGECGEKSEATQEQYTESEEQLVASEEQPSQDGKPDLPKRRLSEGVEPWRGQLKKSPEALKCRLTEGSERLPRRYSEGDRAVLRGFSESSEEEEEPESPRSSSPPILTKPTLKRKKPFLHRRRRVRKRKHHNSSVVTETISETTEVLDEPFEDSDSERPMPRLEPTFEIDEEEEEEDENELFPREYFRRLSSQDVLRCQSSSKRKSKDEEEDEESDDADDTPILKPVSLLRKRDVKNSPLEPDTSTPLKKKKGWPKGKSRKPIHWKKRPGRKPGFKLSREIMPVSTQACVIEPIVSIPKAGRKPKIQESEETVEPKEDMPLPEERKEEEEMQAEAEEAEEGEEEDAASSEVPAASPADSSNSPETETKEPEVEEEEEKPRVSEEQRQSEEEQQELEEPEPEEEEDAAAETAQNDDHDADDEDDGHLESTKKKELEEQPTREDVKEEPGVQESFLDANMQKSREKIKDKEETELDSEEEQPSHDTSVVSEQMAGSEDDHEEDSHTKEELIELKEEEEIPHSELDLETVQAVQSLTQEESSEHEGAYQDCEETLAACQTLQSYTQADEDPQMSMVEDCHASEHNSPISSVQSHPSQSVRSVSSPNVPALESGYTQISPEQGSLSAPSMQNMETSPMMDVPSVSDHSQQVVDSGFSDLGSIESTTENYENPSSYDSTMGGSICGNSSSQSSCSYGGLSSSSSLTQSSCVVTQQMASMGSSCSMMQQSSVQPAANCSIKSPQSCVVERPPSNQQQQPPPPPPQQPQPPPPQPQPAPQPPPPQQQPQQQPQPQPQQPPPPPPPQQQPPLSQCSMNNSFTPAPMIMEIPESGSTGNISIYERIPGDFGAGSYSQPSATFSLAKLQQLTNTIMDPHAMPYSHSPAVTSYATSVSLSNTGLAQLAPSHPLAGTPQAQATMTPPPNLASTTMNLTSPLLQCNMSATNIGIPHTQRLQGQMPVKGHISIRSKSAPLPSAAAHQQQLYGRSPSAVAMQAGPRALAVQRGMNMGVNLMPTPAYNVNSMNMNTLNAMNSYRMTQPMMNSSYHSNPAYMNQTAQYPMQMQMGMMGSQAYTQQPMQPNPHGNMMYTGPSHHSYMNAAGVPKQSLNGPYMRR
The target of the next test is BRPF1 (Homo sapiens, UniProt P55201). As to the kind of experiment: Temperature shift assay (non-BRD reader domains). Format: binding. The following applies: 10µM compound.
Sequence of BRPF1 (P55201 1085-1168 limits assumed, species assumed): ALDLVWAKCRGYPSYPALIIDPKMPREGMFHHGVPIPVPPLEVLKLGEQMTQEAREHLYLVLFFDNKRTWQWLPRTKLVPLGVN
For a further test, the target named is T2, MYST1 (Homo sapiens, UniProt Q9H7Z6).
T2 sequence (Q9H7Z6 1-458): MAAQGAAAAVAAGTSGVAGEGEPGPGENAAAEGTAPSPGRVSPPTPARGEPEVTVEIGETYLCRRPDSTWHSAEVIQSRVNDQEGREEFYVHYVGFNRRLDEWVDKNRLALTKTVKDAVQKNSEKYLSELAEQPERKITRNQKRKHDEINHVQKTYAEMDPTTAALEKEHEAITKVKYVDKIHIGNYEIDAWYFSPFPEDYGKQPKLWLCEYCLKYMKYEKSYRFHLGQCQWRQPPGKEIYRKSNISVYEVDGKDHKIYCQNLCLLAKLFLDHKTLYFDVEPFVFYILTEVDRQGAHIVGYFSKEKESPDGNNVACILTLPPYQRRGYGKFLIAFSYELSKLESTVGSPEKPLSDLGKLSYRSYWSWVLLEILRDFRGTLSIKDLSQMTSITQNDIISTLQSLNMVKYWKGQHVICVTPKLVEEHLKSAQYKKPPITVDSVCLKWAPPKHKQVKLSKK
As to the kind of experiment: Histone acetyltransferase (HAT) activity assay. The following applies: for activity at 1 µM / activity at 10 µM: read-out: HATs Activity (%). In kind it is biochemical.

Another test has as its target GCN5L2 (Homo sapiens, UniProt Q92830). As to the kind of experiment: Histone acetyltransferase (HAT) activity assay. In kind it is biochemical. The following applies: for activity at 1 µM / activity at 10 µM: read-out: HATs Activity (%).
The target in a further test is BRD2(1) (Homo sapiens, UniProt P25440). As to the kind of experiment: BROMOscan ligand-binding assay. The conditions noted are these: BROMOscan Gene Symbol BRD2(1).
Sequence of BRD2(1) (P25440 74-180 limits assumed): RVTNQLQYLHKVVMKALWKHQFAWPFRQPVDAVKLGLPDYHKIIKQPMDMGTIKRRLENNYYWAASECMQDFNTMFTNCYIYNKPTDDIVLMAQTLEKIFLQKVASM
In test [2] the target is T3, EP300 (Homo sapiens, UniProt Q09472).
T3 sequence (Q09472 1049-1156 limits assumed): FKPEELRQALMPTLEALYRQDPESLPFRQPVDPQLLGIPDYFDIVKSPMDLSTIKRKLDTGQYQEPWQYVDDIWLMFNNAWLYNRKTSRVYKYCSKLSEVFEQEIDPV
As to the kind of experiment: BROMOscan ligand-binding assay. The following applies: BROMOscan Gene Symbol EP300.
Description: (§1) BROMOscan is a binding assay based on the well-known KINOMEscan technology. This assay measures the binding of a DNA-tagged bromodomain to an immobilized BRD ligand. If an inhibitor is present, it will compete with the bromodomain binding to the immobilized ligand, resulting in reduction of a quantitative PCR (qPCR) signal in a dose-dependent manner.

In the next test the target is T4, ATAD2B (Homo sapiens, UniProt Q9ULI0).
T4 sequence (Q9ULI0 951-1066 limits assumed): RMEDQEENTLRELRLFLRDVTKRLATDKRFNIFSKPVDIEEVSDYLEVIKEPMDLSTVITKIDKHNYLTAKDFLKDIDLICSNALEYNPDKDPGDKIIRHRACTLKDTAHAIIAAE
As to the kind of experiment: BROMOscan ligand-binding assay.

The target in another test is BRD3(1) (Homo sapiens, UniProt Q15059). As to the kind of experiment: BROMOscan ligand-binding assay. The following applies: BROMOscan Gene Symbol BRD3(1).
Sequence of BRD3(1) (Q15059 34-140 limits assumed): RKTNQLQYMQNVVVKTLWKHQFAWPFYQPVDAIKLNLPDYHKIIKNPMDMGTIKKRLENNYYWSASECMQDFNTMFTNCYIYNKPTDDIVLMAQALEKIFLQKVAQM
The target in another test is T5, BRPF3 (Homo sapiens, UniProt Q9ULD4).
T5 sequence (Q9ULD4 589-693 limits assumed): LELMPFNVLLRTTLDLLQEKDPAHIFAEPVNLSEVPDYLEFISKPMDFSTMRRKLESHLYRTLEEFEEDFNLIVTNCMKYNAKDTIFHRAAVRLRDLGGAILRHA
As to the kind of experiment: BROMOscan ligand-binding assay.

The next test addresses PBRM1(2) (Homo sapiens, UniProt Q86U86). As to the kind of experiment: BROMOscan ligand-binding assay. The following applies: BROMOscan Gene Symbol PBRM1(2).
Where [3] appears, read: read-out: KD (BROMOscan), sheet prints no unit (nM).

Sequence of PBRM1(2) (Q86U86 177-287 limits assumed): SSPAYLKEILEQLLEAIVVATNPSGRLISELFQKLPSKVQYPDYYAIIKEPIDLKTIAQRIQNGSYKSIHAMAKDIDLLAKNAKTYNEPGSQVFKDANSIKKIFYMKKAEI
Description for ATAD2B: as §1
Description for BRD2(1): as §1
Description for BRD3(1): as §1
Description for BRPF3: as §1
Description for PBRM1(2): as §1

For the molecule `Cc1cc2c(cc1N1C(=O)c3cccc4c(CCCO)ccc(c34)C1=O)n(C)c(=O)n2C` [BAY-299], the activity at 1 µM turned out to be 95% at EP300 [1] (1µM); 100% on HAT1 (1µM); 98% at MYST3 (1µM); 99% at MYST1 (1µM); 99% at GCN5L2 (1µM). The activity at 10 µM came out at 93% on EP300 [1] (10µM); 93% on HAT1 (10µM); 85% at MYST3 (10µM); 99% at MYST1 (10µM); 103% on GCN5L2 (10µM). In addition, on BRPF1, the “Tm (C) 10µM, temperature shift” value is on record as -2.5 Kelvin.
Turning to `Cc1c(NC(=O)c2cc(C(N)=O)nc3cc(F)ccc23)c(C(F)(F)F)nn1Cc1ccc(C(C)(C)C)cc1` [BAY-588], the activity at 1 µM on EP300 [1] (1µM) was determined as 103%; on HAT1 (1µM), 99%; on MYST3 (1µM) it was 99%; on MYST1 (1µM) it was 100%; on GCN5L2 (1µM), 94%. Besides, the activity at 10 µM at EP300 [1] (10µM) was determined as 99%; at HAT1 (10µM), 97%; at MYST3 (10µM), 96%; at MYST1 (10µM), 93%; at GCN5L2 (10µM), 95%. Also, on BRPF1, the “Tm (C) 10µM, temperature shift” value was -0.2 Kelvin.
Turning to `COc1cc(Cl)c(C(=O)N[C@@H](CN[C@H]2CC[C@@H](N)CC2)Cc2ccc(C#N)cc2)cc1-c1ccc(CN[C@H](C)c2ccc(C)cc2)o1` [BAY-850], the activity at 1 µM at EP300 [1] (1µM) came out at 98%; on HAT1 (1µM), 101%; on MYST3 (1µM), 96%; at MYST1 (1µM), 93%; at GCN5L2 (1µM), 99%. Also, the activity at 10 µM on EP300 [1] (10µM) came out at 87%; on HAT1 (10µM), 101%; at MYST3 (10µM), 97%; at MYST1 (10µM) it was 94%; on GCN5L2 (10µM), 102%. The “Tm (C) 10µM, temperature shift” value on BRPF1 was -2.2 Kelvin.
Consider `Cc1c(NC(=O)c2cc(C(N)=O)nc3cc(F)ccc23)c(C(F)(F)F)nn1Cc1ccc(C#N)cc1` [BAY-876], for which the activity at 1 µM at EP300 [1] (1µM) turned out to be 99%; on HAT1 (1µM), 97%; on MYST3 (1µM), 99%; on MYST1 (1µM), 96%; on GCN5L2 (1µM), 100%. For the same molecule, the activity at 10 µM is 95% on EP300 [1] (10µM); 89% on HAT1 (10µM); 101% on MYST3 (10µM); 91% at MYST1 (10µM); 97% on GCN5L2 (10µM). For the same molecule, the “Tm (C) 10µM, temperature shift” value at BRPF1 is reported as -0.3 Kelvin.
In general, Kd refers to the equilibrium constant for the complex coming apart. As to `Cc1noc(C)c1-c1ccc2c(c1)nc(CCc1ccccc1)n2CCN1CCOCC1` [CBP30-298], the Kd at BRD2(1) was 0.78 µM; on EP300 [2] it was 0.092 µM; on ATAD2B (BROMOscan Gene Symbol ATAD2B) it was over 50000 nM; on ATAD2B (setting [3]), over 30000 nM; at BRD3(1), 0.96 µM; at BRPF3 (BROMOscan Gene Symbol BRPF3) it was over 50000 nM. In addition, the values for the equilibrium dissociation constant (Kd) at BRPF3 (setting [3]) and on PBRM1(2) were over 30000 nM and 42 µM, respectively.
`CN1C[C@H](Nc2cnn(C)c(=O)c2Br)C[C@H](c2ccccc2)C1` [GSK4027]: the activity at 1 µM on EP300 [1] (1µM) is 93%; at HAT1 (1µM), 102%; on MYST3 (1µM), 101%; at MYST1 (1µM) it was 102%; on GCN5L2 (1µM) it was 99%. Moreover, the activity at 10 µM on EP300 [1] (10µM) is 90%; at HAT1 (10µM), 89%; at MYST3 (10µM) it was 101%; on MYST1 (10µM) it was 98%; at GCN5L2 (10µM), 102%. In addition, the “Tm (C) 10µM, temperature shift” value on BRPF1 is given as -0.8 Kelvin.
Regarding `COc1ccccc1C(=O)Nc1cc2c(cc1N1CCNC[C@H]1C)n(C)c(=O)n2C` [GSK6853], the “HATs Activity (%)” value is given as 98% at EP300 [1] (1µM); 104% on EP300 [1] (10µM); 100% at HAT1 (1µM); 94% at HAT1 (10µM); 107% on MYST3 (1µM); 104% on MYST3 (10µM). Also, the “HATs Activity (%)” value at MYST1 (1µM) is reported as 99%; at MYST1 (10µM), 101%; on GCN5L2 (1µM) it was 107%; on GCN5L2 (10µM), 107%.
With `CO[C@H]1CNC[C@@H](OCC2CCC(F)(F)CC2)[C@@H]1Nc1ncc(-c2cncc(C)c2)c2cc(C)c(=O)[nH]c12` [GSK8814], the activity at 1 µM on EP300 [1] (1µM) is 96%; on HAT1 (1µM) it was 100%; on MYST3 (1µM) it was 96%; on MYST1 (1µM), 99%; on GCN5L2 (1µM), 102%. Moreover, the activity at 10 µM at EP300 [1] (10µM) came to 102%; on HAT1 (10µM), 95%; on MYST3 (10µM), 102%; on MYST1 (10µM) it was 103%; on GCN5L2 (10µM), 100%. The “Tm (C) 10µM, temperature shift” value at BRPF1 is reported as -0.2 Kelvin.
On to `Cc1nnc2c3ccccc3c(N[C@@H](C)[C@H](c3ccccc3)N(C)C)nn12` [L-Moses], for which the activity at 1 µM was found to be 94% on EP300 [1] (1µM); 100% at HAT1 (1µM); 92% at MYST3 (1µM); 97% at MYST1 (1µM); 99% at GCN5L2 (1µM). Moreover, the activity at 10 µM at EP300 [1] (10µM) came to 90%; on HAT1 (10µM), 95%; on MYST3 (10µM), 90%; on MYST1 (10µM) it was 96%; on GCN5L2 (10µM), 95%. The “Tm (C) 10µM, temperature shift” value at BRPF1 is listed as -2.7 Kelvin.
As to `CN(C)CCCOc1ccc(-c2cc(NCCCn3cccn3)nc(S(C)(=O)=O)n2)cc1` [TP-238], the activity at 1 µM on EP300 [1] (1µM) was found to be 99%; on HAT1 (1µM) it was 93%; at MYST3 (1µM), 97%; on MYST1 (1µM), 99%; on GCN5L2 (1µM), 96%. In addition, the activity at 10 µM on EP300 [1] (10µM) was 95%; at HAT1 (10µM) it was 100%; at MYST3 (10µM), 99%; at MYST1 (10µM), 97%; on GCN5L2 (10µM), 92%. Moreover, on BRPF1, the “Tm (C) 10µM, temperature shift” value is listed as -0.3 Kelvin.
